Data taken from patent publication US20230087609A1, “USE OF A SOLUBLE GUANYLATE CYCLASE (sGC) STIMULATOR OR OF A COMBINATION OF A sGC STIMULATOR AND AN sGC ACTIVATOR FOR CONDITIONS WHEREIN THE HEME GROUP OF sGC IS OXIDIZED OR WHEREIN sGC IS DEFICIENT IN HEME” (Universiteit Maastricht, priority 2020, published 2023).

Target: T1, apo-sGC (sGCβ1 H105F knock-in) (Mus musculus, UniProt O54865, H105F)
T1 construct: from tissue; host or cells: lung homogenate of homozygous sGCβ1 H105F knock-in mice
T1 sequence (O54865 1-620 H105F): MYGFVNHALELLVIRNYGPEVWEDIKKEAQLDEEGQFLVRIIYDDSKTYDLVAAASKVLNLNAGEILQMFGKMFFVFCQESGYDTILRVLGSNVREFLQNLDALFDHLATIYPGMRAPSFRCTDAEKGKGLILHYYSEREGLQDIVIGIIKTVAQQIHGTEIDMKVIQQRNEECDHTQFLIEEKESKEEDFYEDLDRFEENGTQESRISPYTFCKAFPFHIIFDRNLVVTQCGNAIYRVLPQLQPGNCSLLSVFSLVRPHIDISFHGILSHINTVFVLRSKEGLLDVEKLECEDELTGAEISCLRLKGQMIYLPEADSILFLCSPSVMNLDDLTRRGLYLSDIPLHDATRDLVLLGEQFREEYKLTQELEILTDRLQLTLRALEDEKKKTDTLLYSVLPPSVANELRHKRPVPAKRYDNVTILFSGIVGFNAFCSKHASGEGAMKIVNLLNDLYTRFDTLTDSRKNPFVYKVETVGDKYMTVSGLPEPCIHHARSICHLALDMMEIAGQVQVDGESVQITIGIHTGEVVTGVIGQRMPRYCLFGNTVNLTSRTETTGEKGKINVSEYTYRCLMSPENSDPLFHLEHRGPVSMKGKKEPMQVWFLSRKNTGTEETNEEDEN
T1 sequence (Q9ERL9 1-691 partner): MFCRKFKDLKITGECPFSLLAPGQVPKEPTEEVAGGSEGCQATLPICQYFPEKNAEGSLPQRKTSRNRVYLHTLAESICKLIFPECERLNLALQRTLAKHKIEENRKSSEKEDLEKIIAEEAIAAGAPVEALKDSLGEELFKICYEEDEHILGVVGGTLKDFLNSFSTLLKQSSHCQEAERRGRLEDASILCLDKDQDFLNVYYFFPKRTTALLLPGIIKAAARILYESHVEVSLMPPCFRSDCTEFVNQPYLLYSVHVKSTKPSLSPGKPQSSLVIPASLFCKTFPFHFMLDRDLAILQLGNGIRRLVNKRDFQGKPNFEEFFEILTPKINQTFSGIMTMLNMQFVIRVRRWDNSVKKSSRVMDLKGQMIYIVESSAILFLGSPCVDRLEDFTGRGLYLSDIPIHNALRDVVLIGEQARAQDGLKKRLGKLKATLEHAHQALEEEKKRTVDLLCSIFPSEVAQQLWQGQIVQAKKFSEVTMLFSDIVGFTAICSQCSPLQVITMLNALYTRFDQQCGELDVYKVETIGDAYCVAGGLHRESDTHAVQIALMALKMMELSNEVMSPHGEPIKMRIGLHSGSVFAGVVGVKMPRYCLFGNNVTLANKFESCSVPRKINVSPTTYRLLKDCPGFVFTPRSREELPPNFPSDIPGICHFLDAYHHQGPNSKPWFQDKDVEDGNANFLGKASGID
Assay: sGC activity in lung homogenates of apo-sGC mice
Assay type: biochemical
Description: Adult male Sprague Dawley (SD) rats (age, 10-12 weeks) were obtained from Animal Resources Centre (Western Australia). Animals were housed on a 12 hour day/night cycle at a room temperature of 20±2° C., in the Department of Pharmacology Animal House, Monash University. The animals were fed standard rodent chow and water was available ad libitum. Homozygous male sGC(1^H105F knock-in mice (“apo-sGC mice”) were kindly provided by Tufts Medical Center, Molecular Cardiology Research Center, Boston, Mass., USA (Toonen et al., Nat Commun. 2015; 6:8482. doi: 10.1038/ncomms9482).
To measure sGC activity, cells were stimulated with 250 μM DEA/NO or 10 μM BAY58-2667 for 3 min at 37° C. Thereafter, cells were immediately lysed in 80% ethanol. Cells were scraped and, after evaporation of ethanol, re-suspended in assay buffer and sonicated. Measurement of sGC activity in crude homogenates of mouse tissue was performed as previously described (Nedvetsky et al., Brain Res. 2002; 950(1-2):148-154. doi: 10.1016/50006-8993(02)03015-9).[9] Briefly, all samples were measured as the formation of cGMP at 37° C. during 10 min in a total incubation volume of […] containing 50 mM triethanolamine-HCl (pH 7.4), 3 mM MgCl2, 3 mM glutathione (Carl Roth, Karlsruhe, Germany), 1 mM IBMX, […], 5 mM creatine phosphate, 0.25 mg/ml creatine kinase and 1 mM or 0.5 mM GTP. After adding sGC activator in the absence or presence of the sGC stimulator the reaction was started by application of GTP solution. Following incubation of each sample for 10 min the reaction was stopped by boiling for 10 min at 95° C. Thereafter the amount of cGMP was subsequently determined by a commercial enzyme immunoassay kit (Enzo Life Sciences, Lorrach, Germany or Biotrend, Cologne, Germany). In some experiments pre-incubation of freshly homogenized tissue with ODQ at 37° C. for 20 min prior measuring sGC activation was required.

Nc1nc(-c2nn(Cc3ccccc3F)c3ncccc23)ncc1C1CC1 [BAY 41-2272, 5-cyclopropyl-2-[1-(2-fluoro-benzyl)-1H-pyrazolo[3,4-b]pyridin-3-yl]-pyrimidin-4-ylamine]
cGMP formation on stimulation with the sGC stimulator (10 μM BAY 41-2272, in presence and in absence of 10 μM ODQ (FIG. 11)): cGMP is synthesized | sGC activity, response to compound alone (lung homogenates of apo-sGC mice, compound alone): can also be activated
